Results as given in patent US20110201659A1, “AGENT FOR PREVENTING OR TREATING ZOSTER-ASSOCIATED PAIN” (ASTELLAS PHARMA INC., priority 2008, published 2011).

What was measured:
[1] = tested on: HSV-1; experiment: HSV-1 skin infection of hairless mice: skin lesion score and histopathology of skin, spinal cord and dorsal root ganglion; assay type: in vivo, mouse
Protocol: Using mice, examination was carried out on the tissue damage and nerve degeneration of the skin, spinal cord and spinal cord dorsal root ganglion by HSV-1 infection. Under ether anesthesia, right side of the dorsal part of a hairless mouse (HOS: HR-1, female, 7 weeks of age at the time of infection) was scratched with a needle, and 15 μl/mouse of an HSV-1 virus liquid was added dropwise to the scratched part to be infected. While, 15 μl/mouse of a solvent instead of the HSV-1 virus liquid was added dropwise in the pseudo-infection group. The compound to be tested (N-(2,6-dimethylphenyl)-N-(2-{[4-(1,2,4-oxadiazol-3-yl)phenyl]amino}-2-oxoethyl)tetrahydro-2H-thiopyran-4-carboxamide 1,1-dioxide: hereinafter, “compound A”) was used by dissolving in a 25% Cremophor (registered trademark) EL/25% polyethylene glycol 400 aqueous solution. By setting the administration liquid volume per one administration to 10 ml/kg, each initial administration was started one day after the HSV-1 infection. Thereafter, 50 mg/kg was repeatedly administered orally twice a day for 5 days.
The skin and spinal column (including spinal cord and dorsal root ganglion) were collected at 11 or 28 days after the infection and fixed with a 10% neutral buffer formalin liquid to prepare paraffin sections. Also, specimens of spinal cord and dorsal root ganglion were prepared on the transverse plane at the level of fourth thoracic vertebra (T4) and sixth thoracic vertebra (T6). Regarding the staining, immunohistological staining for PGP 9.5 as neurite-specific antigen was carried out on the skin sections, in addition to the hematoxylin-eosin staining (HE staining).
The skin lesions which bear resemblance to herpes zoster and are developed accompanied by HSV skin infection were classified based on the skin lesion critical degrees and systemic symptoms and scored as from 0 to 7, every day from 1 day to 28 days after the infection.
Score 1: erythema, blister or scab at local region
Score 2: erythema, blister or scab at small region
Score 3: erythema, blister or scab at middle region
Score 4: strap-like blister or scab
Score 5: erosion accompanied by ulcer at middle region
Score 6: strap-like ulcer
Score 7: death or paralysis

[2] = tested on: HSV-1; experiment: mouse HSV infection pain model (von Frey hair pain score, histopathology); assay type: in vivo
Text: Examination was made on the effect of compound A upon the pain accompanied by viral infection. The mouse HSV infection pain model system on which onset of the pain similar to ZAP including acute phase and chronic phase pains has been reported was used in the evaluation of pain (Takasaki I, et al. Pain 2000; 86: 95-101, Takasaki I, et al. Jpn J. Pharmacol 2000; 83: 319-326, Takasaki I, et al. Anesthesiology 2002; 96: 1168-1174, Sasaki A, et al. Neuroscience 2007; 150: 459-466). Briefly, an area of 5×5 mm of epidermis of the lower part of the right hind leg knee joint of a hairless mouse (HOS: HR-1, female, 7 weeks of age at the time of infection) was scratched with a bundle of ten 27G intracutaneous injection needles, and 1.5×10^5 pfu/10 μL of an HSV-1 virus liquid was added dropwise thereto and spread thereon to be infected. Starting from one day after the infection, the compound A (50 mg/kg) or a solvent (25% Cremophor (registered trademark) EL/25% polyethylene glycol 400 aqueous solution) was orally administered twice a day for 5 days (5 animals each). The skin lesions were classified based on the skin lesion critical degrees and systemic symptoms and scored as from 0 to 7 (cf. the above-mentioned Example 1). […] The pain reaction of this case was evaluated as follows. […]
The pain score of each individual was calculated by averaging six scores. […]

[3] = tested on: patients who underwent herpes zoster; experiment: clinical evaluation of zoster-associated pain / PHN incidence (Numeric pain scale); assay type: in vivo, human; settings: for PHN incidence rate: pain scale of 3 or more on 91 days after first day of administration
Text: The effect of compound A to prevent and treat zoster-associate pain in patients who underwent herpes zoster was clinically evaluated by monitoring the presence or absence of pain after administration of the compound A in the following manner. For the purpose, Numeric pain scale (11 points of from 0 (no pain) to 10 (a pain of more than this cannot be considered)) was used in the pain evaluation (Oxman M N, et al. N Engl J Med 2005; 352: 2271-2284).
Under informed consent with the persons themselves, 100 mg, 200 mg or 400 mg of the compound A was taken once a day for 7 days by each of the patients who underwent herpes zoster, and the pain was recorded by them day by day by the Numeric pain scale using a diary. From the diary record, the number of patients having pain scales of 3 or more on 91 days after the first day of drug administration were counted as the cases of PHN onset, and using the ratio based on the all persons to be rested as the PHN incidence rate, the effect of the compound A to prevent PHN was evaluated. As a result, the PHN incidence rate in the group which took 100 mg, 200 mg or 400 mg of the compound A was 2.0% (2 cases in 99 persons), 1.0% (1 case in 97 persons) or 3.2% (3 cases in 95 persons), respectively. Compound A inhibited the onset of PHN in 95% or more of the herpes zoster patients in the clinical evaluation.

[4] = tested on: VZV; settings: reported in Patent References 5 to 8; cited from earlier work
[5] = tested on: herpes simplex virus (HSV) and VZV; settings: disclosed in Patent References 5 to 7; cited from earlier work

SMILES | skin lesion score (onset of herpes zoster-like skin lesions) ([1]; hairless mouse, HSV-1 dorsal skin infection, 50 mg/kg orally twice a day for 5 days from 1 day after infection, scored day 1-28, FIG. 1) | right dorsal root ganglion histopathology (degeneration of nerve cell, infiltration of mononuclear cell) ([1]; right dorsal root ganglion at 11 days after infection, HE staining, FIG. 3d) | skin histopathology, HE staining (fall off of epidermis, infiltration of mononuclear cells, regeneration of epidermis) ([1]; skin at 11 days after infection, 50 mg/kg orally twice a day for 5 days, FIG. 2b) | PGP 9.5 immunostaining of the skin (nerve ending in epidermis) ([1]; skin at 28 days after infection, versus solvent control group, FIG. 2d) | spinal cord histopathology (nerve fiber vacuolization) ([1]; spinal cord at 11 days after infection, HE staining, FIG. 3b) | nerve cell degeneration in right dorsal root ganglion, spinal cord right dorsal horn and right hind leg sciatic nerve bundle ([2]; 28 days after infection, HE staining, FIG. 5) | pain score (von Frey hair 0.4 g, infected hind leg) ([2]; hairless mouse, HSV-1 hind leg infection, 50 mg/kg orally twice a day for 5 days from 1 day after infection, early stage of onset and complete recovery stage of the lesion, FIG. 4B) | PHN incidence rate ([3]; 100 mg once a day for 7 days, 99 persons) | PHN incidence rate ([3]; 200 mg once a day for 7 days, 97 persons) | PHN incidence rate ([3]; 400 mg once a day for 7 days, 95 persons) | herpes zoster patients in whom onset of PHN was inhibited ([3]; 100, 200 or 400 mg once a day for 7 days, all dose groups) | anti-viral activity on VZV [4] | in vivo activity [5]
Cc1cccc(C)c1N(CC(=O)Nc1ccc(-c2ncon2)cc1)C(=O)C1CCS(=O)(=O)CC1 [compound A, N-(2,6-dimethylphenyl)-N-(2-{[4-(1,2,4-oxadiazol-3-yl)phenyl]amino}-2-oxoethyl)tetrahydro-2H-thiopyran-4-carboxamide 1,1-dioxide] | inhibited the onset of skin lesions | inhibited degeneration of nerve cell and infiltration of mononuclear cell | inhibited fall off of epidermis and infiltration of mononuclear cell and accelerated regeneration of epidermis | inhibition of the reduction of nerve ending | protected nerve fiber in the spinal cord | nerve cell degeneration was inhibited | increase of pain score was considerably inhibited | 2.0% | 1.0% | 3.2% | ≥ 95% | has the anti-viral activity on VZV | good in vivo activity
Cc1ccc(N(CC(=O)Nc2ccc(-c3cocn3)cc2)C(=O)C2CCS(=O)(=O)CC2)cc1 [N-(4-methylphenyl)-N-(2-{[4-(1,3-oxazol-4-yl)phenyl]amino}-2-oxoethyl)tetrahydro-2H-thiopyran-4-carboxamide 1,1-dioxide] | – | – | – | – | – | – | – | – | – | – | – | – | good in vivo activity
